Reference: patent publication US8329230B2, “Natural hair care composition, methods for obtaining the same and use thereof” (priority 2004, dated 2012)
“Also recorded” adds a separate entry of the source.

Key:
[1] = system: Cladosporium cladosporioides (Fres.) de Vries; conditions: cited from earlier work
[2] = system: murine hair epithelial cells; conditions: Phytother. Res. 15, 331-36, 2001; cited from earlier work
male pattern baldness = conditions: Phytother. Res. 15, 331-36, 2001; cited from earlier work
[3] = system: chemotherapy induced alopecia; assay: Chemotherapeutic agent (cyclophosphamide) induced alopecia model, topical extracts; type: in vivo, rat pups of Sprague-Dawley strain
Protocol: Eight-day old rat pups of Sprague-Dawley strain of either sex, bred in Experimental Animal Facility of R&D Center, The Himalaya Drug Company, were used for the experiment. The animals were maintained at 22±3° C., 50-60% of humidity, 12 hours light and dark cycle.
Screening of Extracts in Chemotherapeutic Agent Induced Alopecia Model:
Three Groups of 8 rat pups are used. Group I served normal control and received saline at a dose of 10 ml/kg i.p. Group II & Group III animals received Cyclophosphamide (CP) at a dose of 50 mg/kg i.p. as a single dose. Test extracts PCPB-1 to PCPB-10, PCPB-1P to PCPB-10P and PCPB-1S to PCPB-10S were applied topically to Group III animals everyday from day one after Cyclophosphamide administration till the end of the study. On the 12th day of post Cyclophosphamide injection, the animals were graded for alopecia as given below.
2+—Moderately severe alopecia with more than 50% hair loss
3+—Severe and total alopecia.

heart rate = conditions: oral; cited from earlier work

## COc1ccc2c(c1)O[C@H]1c3ccc(O)cc3OC[C@@H]21 [(−)-medicarpin, (−)-3-hydroxy-9-methoxy ptero carpan]
[1]
  anti-fungal activity: active

## Oc1cc(O)c2c(c1)O[C@H](c1ccc(O)c(O)c1)[C@H](O)[C@H]2c1c(O)cc(O)c2c1O[C@H](c1ccc(O)c(O)c1)[C@H](O)C2 [Procyanidin B-2]
[2]
  growth promoting effect on hair epithelial cells: acts as growth promoting factor
Male pattern baldness
  potential as cure for male pattern baldness: showed potential as promising cure

## COc1ccc2c(c1)OC1c3ccc(OC(C)=O)cc3OCC21 (single isomer, unassigned; (-)) [(−)-medicarpin acetate]
[1]
  anti-fungal activity: active

## O=P1(N(CCCl)CCCl)NCCCO1 (stereo not drawn) [CP, Cyclophosphamide]
[3]; figure legends FIGS. 2, 3
  hair growth, stereosome photograph: scanty hairs
[3]; figure legends FIGS. 5, 6
  alopecia, appearance of rat pups: high degree of alopecia
[3]; figure legends FIGS. 8-10
  hair follicles, photomicrograph of skin section: degenerating hair follicles with decrease in their numbers; also recorded: degenerating hair follicles with epidermal down growth
[3]; mean ± SEM of 8 rat pups, graded 0 to 3+ on 12th day post CP
  alopecia grade, Mean SEM: 2.88 ± 0.13

## Nc1cc(N2CCCCC2)nc(N)[n+]1[O-] [Minoxidil]
Heart rate
  effect on heart rate: reported to affect heart rate in some patients
